Several values for one entry are separate records, joined by “and”; a condition that tells them apart may be missing. Equal entries are not always repeated.
Tests used:
[1] = System adherence test (empty perfusion chamber, maternal circuit only); type: in vitro ADME; conditions: % of initial concentration, 5 μM in PM, no placental tissue, 240 min, n = 3
Protocol: The dissolution and adherence of the compounds to the perfusion equipment and to the tubing system was assessed before starting perfusions with human placentae. […] The compounds were directly dissolved in PM at a final concentration of 5 μM (100 mL reservoir) and individually tested in three independent experiments (n = 3).

[2] = system: placental tissue
Protocol: The stability of volumes in each reservoir ensured the integrity of the circuits and served for the detection of fetal-maternal (FM) leaks (≤4 mL/h). Throughout the perfusion additional quality control measures included a physiological pH-range (7.2 ± 0.1) and a controlled fetal perfusion pressure (≤ 70 mmHg). Samples were taken at defined timepoints over a 240 min period, immediately centrifuged, and stored in glass micro-inserts (VWR) at −80°C for bioanalytical analysis. A blood gas analysis (pH, pO2, pCO2, glucose, lactate; ABL800 FLEX) of fetal and maternal samples was performed to ensure viability and metabolic activity of placental tissue during perfusion. The production of the placental hormones beta-human chorionic gonadotropin (β-hCG) and leptin was monitored by standard ELISA to assess tissue functionality ex vivo [see ([Spiess et al., 2022a]) and references therein]. For β-hCG, flat-bottom microplates were coated with rabbit polyclonal anti-hCG antibody (Agilent Dako) at a 1:1′000 dilution and the mouse monoclonal anti-hCG (abcam; 1:5′000) served as secondary antibody. The peptide hormone hCG (Lucerna-Chem) was used as reference standard; standard final concentrations of between 100 mU/mL and 2.5 mU/mL were prepared by serial dilution in seven steps and used in each plate. The goat anti-mouse-IgG-horseradish peroxidase conjugate (abcam) antibody was used at a 1:5′000 dilution. The substrate consisted of O-phenylenediamine dihydrochloride. […] For leptin, microtiter plates were coated with mouse monoclonal anti-human leptin/OB (R&D Systems; 1:250). The second antibody was biotinylated monoclonal mouse anti-human leptin/OB (R&D Systems), used at a dilution of 1:1′000. The standard was recombinant human leptin (R&D Systems); standard final concentrations of between 2′000 pg/mL and 15.6 pg/mL were prepared by serial 1:2 dilution in seven steps and used in each plate. […] The conjugate streptavidin-horseradish peroxidase (Southern Biotechnology Associates, 1:4′000) was added and the plate incubated for 60 min. For the development, ready-to-use tetramethylbenzidine substrate solution (Thermo Fischer) was used.
Concentrations in the placental perfusion profiles (Figure 2) and system adherence tests (Figure 4) were expressed as a percentage (%) of the maternal concentration at the beginning of the perfusion, whereby the maternal concentration, measured in the maternal reservoir, was adjusted to the total volume of the full maternal circuit (maternal reservoir and dead volume of the system). The FM concentration ratio (FM ratio; Figure 3) was calculated for each timepoint and plotted against the perfusion time (min). The final recovery (%) is the sum of the amounts of study compound present in both perfusates at the end of a perfusion, and the sample removed during the experiment. Glucose consumption and lactate production are presented as the sum of changes (from the beginning to the end of perfusion) in total content (μmol) in both circuits, normalized by total perfusion time (min) and weight (g) of perfused cotyledon. […]
Multiple group comparisons were performed for the glucose consumption, lactate production, β-hCG and leptin production using the non-parametric Mann–Whitney U with GraphPad Prism (version 9.3.1 for macOS; GraphPad Software). […] Data are expressed as mean ± SD of three to four independent experiments.

[3] = in vitro; conditions: human
Protocol: (§1) BeWo b30 choriocarcinoma cells were obtained from Dr. Tina Buerki-Thurnherr (Empa, St. Gallen, Switzerland), with permission from Dr. Alan L. Schwartz (Washington University School of Medicine, St. Louis MO, USA), and were cultivated in F-12 K Nut Mix supplemented with 10% heat inactivated FBS, antibiotics (100 U/mL penicillin, 100 µg/mL […]), and 2 mM L-glutamine (all from Gibco). The cells were cultivated in a humidified incubator at 37°C and 5% CO2 atmosphere.
(§2) BeWo b30 cells were cultured on Transwell® polycarbonate membrane inserts (24-well format; 0.4 μm pore size, 0.33 cm^2 cell growth area, 200 μL apical volume, 1′000 μL basolateral volume; Corning, Sigma-Aldrich) at a density of 60′000 cells/well. These inserts were then cultivated in a cellZscope (nanoAnalytics) at 37°C/5% CO2. Cell culture medium was replaced every 2 days up to 11 days to find the best possible conditions.
(§3) BeWo b30 cells were cultured in transparent 24-well plates under the same conditions as mentioned above and transferred to the cellZscope® at day 8 to record TER and Ccl values. After 24 h (day 9) and when a TER of 30–60 Ωcm^2 was reached and Ccl was between 0.5 and 5.0 μF/cm^2, the permeability assay was initiated by adding valerenic acid (5 μM; in HBSS with 4% BSA) to the apical compartment, while the basolateral compartment contained 1′000 μL of HBSS only. […] Samples (150 μL apical, 800 μL basolateral) were collected at each time point (0, 15, 30, 60 min; one insert per time point). After 60 min, a part of the inserts was transferred back to the cellZscope® to monitor TER and Ccl values during another 24 h. The cells grown on the other part of the inserts were quickly washed with 200 μL of cold HBSS and then lysed with 700 μL acetonitrile (100 μL apical, 600 μL basolateral) for 40 min on an orbital shaker (450 rpm, room temperature) to determine the test substance cell contents.
(§4) Apparent permeability coefficients (Papp) were calculated according to the following Eq. 1: Papp cm/s=∆Q/∆t/ACA0 (1) where ΔQ/Δt is the rate of amount transported to the receiver compartment, A is the membrane surface area (0.33 cm^2), and C A0 is the initial concentration in the apical compartment.
(§5) The clearance values were calculated according to the following Eq. 2 ([Neuhaus et al., 2008]): Clearance μL=CBnVB/CA−VB/VA∙∑CBn−1 (2) where C Bn and V B are the concentration and volume in the basolateral compartment at a specific timepoint (n), respectively; C A and VA are the concentration and volume in the apical compartment, respectively, and C Bn-1 is the total amount of substance found in the basolateral compartment up to the previous timepoint (n-1).
(§6) Recovery (mass balance) of each compound was calculated according to the following Eq. 3: Recovery %=CAfVA+CBfVB+CCfVC/CA0VA∙100 (3) where C Af , C Bf and C Cf are the final compound concentrations in apical, basolateral, and cellular compartments, respectively; C A0 is the initial concentration in the apical compartment, and V A , V B and V C are the volumes in the respective compartments.
(§7) For valerenic acid, 150 µL of the IS in MeOH were added to 50 µL of sample, and the mixture centrifuged for 20 min at 13′200 rpm/16′100 rcf at 10°C (Centrifuge 5415R, Eppendorf). An aliquot (50 µL) of the supernatant was collected and transferred into HPLC vials. Vials were centrifuged for additional 20 min prior to U(H)PLC-MS/MS analysis in full loop mode (2 µL).

[4] = system: BeWo b30 cells; assay: in vitro; conditions: human, 60 min, 5 μM
Protocol: as §1, §2, §3, §4, §5, §6, §7

[5] = system: human placental barrier
[6] = 60 min, 5 μM
[7] = in vitro; conditions: human, pH 7.2
[8] = Stability assay in PBS, perfusion medium and placental homogenates; type: in vitro ADME, human
Protocol: In short, after spiking the various matrices with the study compounds, samples were either processed immediately for U(H)PLC-MS/MS analysis (C0), or kept at 4°C/37°C on an orbital shaker (600 rpm) for 360 min before processing for U(H)PLC-MS/MS analysis. Samples were processed via solid phase extraction or protein precipitation prior to analysis.

[9] = system: placental tissue; assay: Histopathological evaluation of perfused placentae; design: species or system human
Protocol: Immediately after perfusion the placentae were fixed in 4% paraformaldehyde for at least 24 h. Tissue samples from representative placental tissue sections, each from perfused, non-perfused, and transitional area were prepared to perform a pathological examination. For this purpose, the tissue was embedded in paraffin, cut (∅ 2-3 µm), and stained (standard hematoxylin-eosin stain, Braun-Brenn modified Gram stain) according to the standards of routine histopathological diagnosis of the Department of Pathology and Molecular Pathology (University Hospital of Zurich). […] The blood void and width of the intervillous space and fetal blood vessels in the chorionic villi provided information about the quality of perfusion, and particular attention was paid to the presence of intravascular thrombi. General signs of degeneration, such as vacuolization of the cytotrophoblast, villous vascular endothelium viability, and formation of hydropic villous changes compared with non-perfused tissue indicated whether tissue damage might have occurred during perfusion. Microscopic effects and placental tissue damage in the perfused area were expressed in relative amounts (%) to the non-perfused tissue.

[10] = system: BeWo cells; conditions: ref Spiess et al., 2022b; cited from earlier work
[11] = human volunteers, ref Jackson et al., 2014; cited from earlier work
[12] = Transwell control experiments across cell-free inserts; conditions: data not shown
[13] = non-perfused area of same placenta

## Cc1cc(=O)n(-c2ccccc2)n1C [Antipyrine, antipyrine, reference compound]
[1]
  Compound lost / adhering to the perfusion equipment: −2.2% and −2.2% ± 7.0%
[2]
  Lactate production: 0.27 µmol/g/min
  Leptin production: 2.26 ng/min
  Total glucose consumption: 0.39 µmol/g/min
  β-hCG production: 1.44 U/min
[3]
  Papp at 60 min, 5 μM: 28 ×10⁻⁶ cm/s
  recovery at 60 min, 5 μM: 81.9%
[4]
  Clearance across BeWo b30 cell layer: 35.5 µL
[5]; human, 5 μM, pH 7.2
  Sampling (% found): 21.8 ± 1.3%
  Time to equilibrium between fetal and maternal compartment: 120 min
  Time to equilibrium between fetal and maternal concentrations (FM ratio): 90 min
[5]; human, 90 min, 5 μM, pH 7.2
  FM ratio at 90 min: 1.03
[5]; human, 120 min, 5 μM, pH 7.2
  FM ratio at 120 min: 0.98
[5]; human, 180 min, 5 μM, pH 7.2
  FM ratio at 180 min: 1.05
[5]; human, 240 min, 5 μM, pH 7.2
  FM ratio at 240 min: 0.92
[6]
  Clearance across cell-free insert: 33.5 µL
[7]
  recovery at 240 min, 5 μM: 79.2%

## Cc1cc(O)c2c(=O)c3c(O)cc(O)c4c5c(O)cc(O)c6c(=O)c7c(O)cc(C)c8c1c2c(c34)c(c78)c65 [Hypericin, hypericin]
[1]
  Compound lost / adhering to the perfusion equipment: 3.8% and 3.8% ± 13.1%
[8]; 360 min, 4°C and 37°C
  Stability in PBS compared to PM (in words): less stable
[8]; human, tissue homogenate, 6 h
  Remaining in placental homogenate, Donor 1: 101.0%
  Remaining in placental homogenate, Donor 2: 82.7%
  Remaining in placental homogenate, Donor 3: 93.7%
[2]; 5 μM, 240 min perfusion, vs antipyrine control perfusions
  Effect on β-hCG and leptin production (in words): neither hyperforin, hypericin, nor valerenic acid inhibited their production in a statistically significant manner
[9]
  Global placental pathology: Else: CCB and N
[9]; after perfusion
  Extravasations into villous stroma (in words): no extravasations into villous stroma
  Ruptures of villous vessels (in words): no ruptures of villous vessels
[9]; [13]
  Hydropic changes in non-perfused: 5% and 0%
  Intervillous spaces without blood in non-perfused: 40% and 80%
  Vacuolated trophoblast in villi: in non-perfused too?: 0%
[9]; perfused and non-perfused
  Thrombi in vessels of stem villi (in words): no thrombi detectable
[9]; perfused area
  Intervillous spaces without blood: 90% and 95%
[9]; perfused area, individual experiments
  Emptiness of villous vessels: 90% and 80% and 85%
[5]; 240 min perfusion, 5 μM maternal
  Transplacental transfer (in words): did not cross the human placental barrier
[5]; human, 240 min, 5 μM, pH 7.2
  Concentration in the maternal compartment: approximately 46 % of initial concentration
[5]; maternal perfusate after 240 min, % of amount in maternal sample at beginning
  M perfusate (% found): 36.7%
[7]
  recovery at 240 min, 5 μM: 54%
[10]
  Concentration lowering the viability of placental cells: 1000 nM
  Concentration with genotoxic effects: 10000 nM
  Concentration with increased apoptosis / apoptotic effects: 1000 nM
[11]
  Plasma concentration: 2.2 ng/mL and 4.36 nM
[12]
  Passage across cell-free inserts (in words): did not cross the cell-free inserts to a sufficient extent

Source: article PMC10103840 (Frontiers in Pharmacology, 2023)
